Measured values taken from patent US10981917B2, “Heterocyclic compound, its preparation method, and pharmaceutical composition comprising the same” (Daewoong Pharmaceutical Co., Ltd., priority 2017, dated 2021).

Biological target: PRS (prolyl-tRNA synthetase) protein, PRS portion of EPRS (Homo sapiens (Human), UniProt P07814)
Experiment: PRS enzyme activity inhibition experiment ([3H]proline, liquid scintillation)
Assay type: biochemical
Conditions: purified PRS protein, 37° C. for 5 to 10 minutes
Summary of the method: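 Values are % inhibition or IC50 ranges (A ≤100 nM, B 100–500 nM, C ≥500 nM) from [3H]proline incorporation measured by liquid scintillation. PRS portion of human EPRS, reacted 5–10 min at 37 °C in pH 7.4 phosphate buffer containing 5 mM ATP and tRNA, compound at 1 μM.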

Chain of PRS (prolyl-tRNA synthetase) protein, PRS portion of EPRS (P07814 1007-1512): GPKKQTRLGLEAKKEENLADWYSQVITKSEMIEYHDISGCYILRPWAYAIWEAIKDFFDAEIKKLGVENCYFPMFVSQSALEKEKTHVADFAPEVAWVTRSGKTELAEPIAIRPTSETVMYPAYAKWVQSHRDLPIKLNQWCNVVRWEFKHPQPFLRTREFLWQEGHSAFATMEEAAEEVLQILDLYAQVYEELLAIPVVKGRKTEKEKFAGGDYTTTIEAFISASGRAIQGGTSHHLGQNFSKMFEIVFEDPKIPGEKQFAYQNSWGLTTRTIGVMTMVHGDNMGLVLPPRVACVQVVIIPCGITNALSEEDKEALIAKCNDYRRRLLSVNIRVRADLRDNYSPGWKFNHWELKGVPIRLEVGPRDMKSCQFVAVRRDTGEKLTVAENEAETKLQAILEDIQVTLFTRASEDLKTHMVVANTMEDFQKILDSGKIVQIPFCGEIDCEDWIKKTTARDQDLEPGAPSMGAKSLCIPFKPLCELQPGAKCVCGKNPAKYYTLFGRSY

SMILES | IC50 [nM]
O[C@H]1CCCN[C@@H]1/C=C/Cn1ncc2cc(Cl)cnc21 [Example 200, (2R,3S)-2-((E)-3-(5-chloro-1H-pyrazolo[3,4-b]pyridin-1-yl)prop-1-en-1-yl)piperidin-3-ol] | ≥ 500
Cc1ccc2c(c1)c(C)nn2C/C=C/[C@H]1NCCC[C@@H]1O [Example 201, (2R,3S)-2-((E)-3-(3,5-dimethyl-1H-indazol-1-yl)prop-1-en-1-yl)piperidin-3-ol] | ≥ 500
COC(=O)c1cn(C/C=C/[C@H]2NCCC[C@@H]2O)c2c(Br)cccc12 [Example 202, methyl 7-bromo-1-((E)-3-((2R,3S)-3-hydroxypiperidin-2-yl)allyl)-1H-indole-3-carboxylate] | 100 to 500
O=C(O)c1cn(C/C=C/[C@H]2NCCC[C@@H]2O)c2c(Br)cccc12 [Example 203, 7-bromo-1-((E)-3-((2R,3S)-3-hydroxypiperidin-2-yl)allyl)-1H-indole-3-carboxylic acid] | ≥ 500
O=C(O)c1cn(C/C=C/[C@H]2NCCC[C@@H]2O)c2ccc(Br)cc12 [Example 204, 5-bromo-1-((E)-3-((2R,3S)-3-hydroxypiperidin-2-yl)allyl)-1H-indole-3-carboxylic acid] | ≥ 500
O=C(O)c1cn(C/C=C/[C@H]2NCCC[C@@H]2O)c2cccc(Cl)c12 [Example 205, 4-chloro-1-((E)-3-((2R,3S)-3-hydroxypiperidin-2-yl)allyl)-1H-indole-3-carboxylic acid] | ≥ 500
O=C(O)c1cn(C/C=C/[C@H]2NCCC[C@@H]2O)c2cc(Cl)ccc12 [Example 206, 6-chloro-1-((E)-3-((2R,3S)-3-hydroxypiperidin-2-yl)allyl)-1H-indole-3-carboxylic acid] | ≥ 500
O=C(O)c1cn(C/C=C/[C@H]2NCCC[C@@H]2O)c2c(Cl)cccc12 [Example 207, 7-chloro-1-((E)-3-((2R,3S)-3-hydroxypiperidin-2-yl)allyl)-1H-indole-3-carboxylic acid] | ≥ 500
O=C(O)c1cn(C/C=C/[C@H]2NCCC[C@@H]2O)c2cc(F)ccc12 [Example 208, 6-fluoro-1-((E)-3-((2R,3S)-3-hydroxypiperidin-2-yl)allyl)-1H-indole-3-carboxylic acid] | ≥ 500
O=C(O)c1cn(C/C=C/[C@H]2NCCC[C@@H]2O)c2ccccc12 [Example 209, 1-((E)-3-((2R,3S)-3-hydroxypiperidin-2-yl)allyl)-1H-indole-3-carboxylic acid] | ≥ 500
COC(=O)c1cn(C/C=C/[C@H]2NCCC[C@@H]2O)c2cccc(Cl)c12 [Example 210, methyl 4-chloro-1-((E)-3-((2R,3S)-3-hydroxypiperidin-2-yl)allyl)-1H-indole-3-carboxylate] | ≥ 500
COC(=O)c1cn(C/C=C/[C@H]2NCCC[C@@H]2O)c2cc(Cl)ccc12 [Example 211, methyl 6-chloro-1-((E)-3-((2R,3S)-3-hydroxypiperidin-2-yl)allyl)-1H-indole-3-carboxylate] | ≥ 500
COC(=O)c1cn(C/C=C/[C@H]2NCCC[C@@H]2O)c2c(Cl)cccc12 [Example 212, methyl 7-chloro-1-((E)-3-((2R,3S)-3-hydroxypiperidin-2-yl)allyl)-1H-indole-3-carboxylate] | ≥ 500
COC(=O)c1cn(C/C=C/[C@H]2NCCC[C@@H]2O)c2ccc(Br)cc12 [Example 213, methyl 5-bromo-1-((E)-3-((2R,3S)-3-hydroxypiperidin-2-yl)allyl)-1H-indole-3-carboxylate] | ≥ 500
COC(=O)c1cn(C/C=C/[C@H]2NCCC[C@@H]2O)c2cc(Br)ccc12 [Example 214, methyl 6-bromo-1-((E)-3-((2R,3S)-3-hydroxypiperidin-2-yl)allyl)-1H-indole-3-carboxylate] | 100 to 500
CNC(=O)c1cn(C/C=C/[C@H]2NCCC[C@@H]2O)c2ccc(Br)cc12 [Example 215, 5-bromo-1-((E)-3-((2R,3S)-3-hydroxypiperidin-2-yl)allyl)-N-methyl-1H-indole-3-carboxamide] | ≥ 500

SMILES | IC50 [nM]
CN(C)C(=O)c1cn(C/C=C/[C@H]2NCCC[C@@H]2O)c2ccc(Br)cc12 [Example 216, 5-bromo-1-((E)-3-((2R,3S)-3-hydroxypiperidin-2-yl)allyl)-N,N-dimethyl-1H-indole-3-carboxamide] | ≥ 500
Cc1c(Cl)ccc2c1ncn2C/C(F)=C/[C@H]1NCCC[C@@H]1O [Example 217, (2R,3S)-2-((Z)-3-(5-chloro-4-methyl-1H-benzo[d]imidazol-1-yl)-2-fluoroprop-1-enyl)piperidin-3-ol] | ≥ 500
Cc1c(Br)ccc2c1ncn2C/C(F)=C/[C@H]1NCCC[C@@H]1O [Example 218, (2R,3S)-2-((Z)-3-(5-bromo-4-methyl-1H-benzo[d]imidazol-1-yl)-2-fluoroprop-1-en-1-yl)piperidin-3-ol] | ≥ 500
O[C@H]1CCCN[C@@H]1/C=C(\F)Cn1cnc2cc(Cl)c(Cl)cc21 [Example 219, (2R,3S)-2-((Z)-3-(5,6-dichloro-1H-benzo[d]imidazol-1-yl)-2-fluoroprop-1-en-1-yl)piperidin-3-ol] | ≥ 500
OCc1nc2cc(Cl)c(Cl)cc2n1C/C(F)=C/[C@H]1NCCC[C@@H]1O [Example 220, (2R,3S)-2-((Z)-3-(5,6-dichloro-2-(hydroxymethyl)-1H-benzo[d]imidazol-1-yl)-2-fluoroprop-1-en-1-yl)piperidin-3-ol] | ≥ 500
C/C(=C\[C@H]1NCCC[C@@H]1O)Cn1cnc2c(C)c(Cl)ccc21 [Example 221, (2R,3S)-2-((E)-3-(5-chloro-4-methyl-1H-benzo[d]imidazol-1-yl)-2-methylprop-1-en-1-yl)piperidin-3-ol] | ≥ 500
C/C(=C\[C@H]1NCCC[C@@H]1O)Cn1cnc2c(C)c(Br)ccc21 [Example 222, (2R,3S)-2-((E)-3-(5-bromo-4-methyl-1H-benzo[d]imidazol-1-yl)-2-methylprop-1-en-1-yl)piperidin-3-ol] | ≥ 500
C/C(=C\[C@H]1NCCC[C@@H]1O)Cn1cnc2cc(Cl)c(Cl)cc21 [Example 223, (2R,3S)-2-((E)-3-(5,6-dichloro-1H-benzo[d]imidazol-1-yl)-2-methylprop-1-en-1-yl)piperidin-3-ol] | ≥ 500
C/C(=C\[C@H]1NCCC[C@@H]1O)Cn1c(CO)nc2cc(Cl)c(Cl)cc21 [Example 224, (2R,3S)-2-((E)-3-(5,6-dichloro-2-(hydroxymethyl)-1H-benzo[d]imidazol-1-yl)-2-methylprop-1-en-1-yl)piperidin-3-ol] | ≥ 500
O[C@H]1CCCN[C@@H]1C#CCn1cnc2cc(Cl)c(Cl)cc21 [Example 225, (2R,3S)-2-(3-(5,6-dichloro-1H-benzo[d]imidazol-1-yl)prop-1-yn-1-yl)piperidin-3-ol] | ≥ 500
Cc1c(Br)ccc2c1ncn2CC#C[C@H]1NCCC[C@@H]1O [Example 226, (2R,3S)-2-(3-(5-bromo-4-methyl-1H-benzo[d]imidazol-1-yl)prop-1-yn-1-yl)piperidin-3-ol] | ≥ 500
Cc1c(Cl)ccc2c1ncn2CC#C[C@H]1NCCC[C@@H]1O [Example 227, (2R,3S)-2-(3-(5-chloro-4-methyl-1H-benzo[d]imidazol-1-yl)prop-1-yn-1-yl)piperidin-3-ol] | ≥ 500
O[C@H]1CCCN[C@@H]1C#CCn1cnc2cc(Br)c(Br)cc21 [Example 228, (2R,3S)-2-(3-(5,6-dibromo-1H-benzo[d]imidazol-1-yl)prop-1-yn-1-yl)piperidin-3-ol] | ≥ 500
Cc1c(F)ccc2c1ncn2CC#C[C@H]1NCCC[C@@H]1O [Example 229, (2R,3S)-2-(3-(5-fluoro-4-methyl-1H-benzo[d]imidazol-1-yl)prop-1-yn-1-yl)piperidin-3-ol] | ≥ 500
O[C@H]1CCN[C@@H]1/C=C/Cn1cnc2cc(Cl)c(Cl)cc21 [Example 230, (2R,3S)-2-((E)-3-(5,6-dichloro-1H-benzo[d]imidazol-1-yl)prop-1-en-1-yl)pyrrolidin-3-ol] | ≥ 500
